Measured values from patent publication US20240216250A1, “COSMETIC PEPTIDES FOR IMPROVING SKIN REJUVENATION” (Lean Life Sciences, Inc., priority 2021, published 2024).
Ends that are not written are not given here.

Experiments:
3T3-L1 fibroblast = assay: Collagen and fibronectin production in 3T3-L1 fibroblast by ELISA, with cell number; type: cell-based, mouse; settings: across treatment groups
Text: Effects of […] (SEQ ID NO: 5) on collagen and fibronectin production are validated in mouse fibroblast. A mouse fibroblast cell line is purchased from American Type Culture Collection (ATCC) to be used in all in vitro studies (3T3-L1 CL-173). The cells are first thawed into two T75 flasks per 1 million cell vial in basal medium I (BMI), which is composed of DMEM (4.5 g/l glucose) supplemented with 10% FBS and 1% Penicillin Streptomycin (P/S). The media is changed the following day, and on day 3, the cells are seeded in 96-well plates (200 μl/well). The peptide was administered to 3T3-L1 fibroblast in five varying concentrations. Collagen and fibronectin produced from the cell was assessed in the cell culture media 3 days after the peptide treatment by ELISA.

3T3-L1 mature adipocytes = assay: Lipid accumulation in 3T3-L1 adipocytes by Oil Red O staining, with cell count; type: cell-based, mouse; settings: Oil Red O, microscopy, peptides at 100 μM, three times per week for three weeks (Day 21), vs non-treated control
Method: FIG. 3: Representative photomicrographs showing Oil Red O-stained mature adipocytes treated with peptides at 100 μM (Day 21). H: Quantitative analysis of the lipids accumulated in the adipocytes (Day 21). Control absorbance: 0.526 (Red line). I: Relative cell counts on day 21.
The effects of the minimal short peptides in blocking lipid accumulation in adipocytes were compared with their parent full-length peptide. After generating five different 3 amino acid fragments (KGG, GGR, GRA, RAK, and AKD) from the original ATS peptide (KGGRAKD (SEQ ID NO:1)), each peptide was administered to 3T3-L1 pre-adipocytes in five varying concentrations. Peptides were treated to the adipocytes three times per week for three weeks. Oil Red O staining was utilized to assess the lipid contents in mature adipocytes in culture. The morphological characteristics of 3T3-L1 mature adipocytes were observed by microscopy. […] Furthermore, the lipids were quantitatively analyzed.
The number of viable cells is counted prior to Oil Red O staining using Cell Counting Kit 8 (Dojindo). This cell viability study allows one to determine potential toxicities of the peptides and compensate for cell number variation-causing artifacts. Oil Red O is dissolved in isopropanol at […] to create a working solution. 12 ml of Oil Red O working solution is mixed with 8 ml dH2O and incubated for 10 minutes. This solution is then filtered using a 0.2 μm syringe filter. Adipocytes seeded on 96-well plates are washed with PBS twice. 10% formaldehyde is added for initial fixation and the plates are incubated for at least 30 minutes. The formaldehyde is removed and the cells are once again washed twice, this time with dH2O. 60% isopropanol is added to each well. The plates are incubated for 5 minutes. The isopropanol is removed from the wells and replaced with Oil Red O working solution. The plates are incubated for an additional 10 minutes. The Oil Red O solution is removed and washed four times with dH2O. Lastly, digital micrographs of the lipid droplets in adipocytes are taken using a light microscope. After the staining protocol, all plates are washed three times with 60% isopropanol. Each time, 5 minutes of gentle rocking was used. The Oil Red O is extracted with 100% isopropanol with gentle rocking for 5 minutes. 200 μl isopropanol per well is used as a background to measure absorbance at 492 nm using a BioTek microplate reader.

3T3-L1 cells = assay: Fructose, glucose and sucrose concentration in adipocytes (3T3-L1 cell lysates, Fructose Assay Kit); type: cell-based, mouse; settings: Examples 1-2 to 1-11, same manner as Example 1-1
Method: Fructose concentration in 3T3-L1 cell lysates was measured using the Fructose Assay Kit (Abcam, Cambridge, UK). Six-well plates were seeded with 5×10^5 3T3-L1 cells/well one day before treating with 150 μM peptide. After 48 hours of treatment, the cells were harvested and fructose concentrations were assayed according to the manufacturer's instruction.
In order to confirm the effect of peptides on reducing the fructose level in adipocytes, three groups of adipocytes were prepared. Among the three groups, one group was treated with GGR, and another group was treated with RAK. The remaining group was not treated with any peptides and used as a control group. […] Fructose—an intermediate metabolite of glucose—was measured to further probe glucose metabolism. 3T3-L1 cells treated with either peptide had lower fructose concentrations than untreated cells (FIG. 1).
An additional group of adipocytes are treated with one of KGGRAKD, KGG, GGR, GRA, RAK, AKD, DKA, KAR, ARG, RGG, GGK, and DKARGGK in the same manner as Example 1-1.

prohibitin = molecular target: T1, prohibitin (Mus musculus, UniProt P67778); assay: ATS/prohibitin binding by ATS magnetic beads, immunoprecipitation and western blot; settings: fractionated proteins from adipocytes captured on ATS magnetic beads, western blotting (A of FIG. 2)
T1 construct: Fractionated proteins isolated from adipocytes were incubated with the ATS magnetic beads; endogenous in cells; probably 3T3-L1
T1 sequence (P67778 2-272 limits assumed): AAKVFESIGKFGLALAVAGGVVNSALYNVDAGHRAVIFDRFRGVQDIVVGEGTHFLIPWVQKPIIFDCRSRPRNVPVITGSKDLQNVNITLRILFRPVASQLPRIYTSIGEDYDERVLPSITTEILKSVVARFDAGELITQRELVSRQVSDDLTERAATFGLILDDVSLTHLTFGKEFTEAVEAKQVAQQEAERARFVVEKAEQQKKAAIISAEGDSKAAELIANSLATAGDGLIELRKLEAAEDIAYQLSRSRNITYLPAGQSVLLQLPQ
Text: FIG. 2: ATS/prohibitin binding determined by immunoprecipitation and western blot (A of FIG. 2). Location and degree of prohibitin expression in pre- or mature adipocytes. PM, plasma membrane; Cyt, Cytoplasm (B of FIG. 2). Confocal micrographs showing the location of prohibitin in mature- or pre-adipocytes (C of FIG. 2).
It was confirmed that prohibitin shifts its location to the cell membrane as adipogenesis progresses and ATS binds to prohibition. The ATS/prohibitin binding was verified in pre- or mature adipocytes (Won, Y. W. et al. Nat Mater 13, 1157-1164, (2014)). Fractionated proteins isolated from adipocytes were incubated with the ATS magnetic beads and the protein captured by ATS was identified by western blotting. […] Prohibitin is observed in several intracellular locations at varying expression levels depending on the degree of adipogenesis (Wang, P. et al. Cell Mol Life Sci 61, 2405-2417, (2004); Patel, N. et al. Proceedings of the National Academy of Sciences of the United States of America 107, 2503-2508, (2010)). The degree and location of prohibitin expression in pre- or mature adipocytes was determined. […] Confocal microscopy also verified the prohibitin expression on the cell membrane of mature adipocytes (C of FIG. 2). High-level prohibitin expression on the cell membrane of mature adipocytes is important to the ATS/prohibitin interaction.

Substance	Cell number at the end point (toxicity) (3T3-L1 fibroblast)	Number and size of lipid droplets in adipocytes (3T3-L1 mature adipocytes)	Fructose concentration in adipocytes vs control group (3T3-L1 cells)	Binding of ATS to prohibitin (prohibitin)
ACTGSTQHQGGGSESPLKRQG	almost the same across the treatment groups	–	–	–
KGGRAKD	–	smaller than those in the non-treated control	significantly lower than the control group	specifically binds to prohibitin
